Source: patent US9663800B2, “Alkane exporter and its use” (Nanyang Technological University, priority 2012, dated 2017)

Legend:
S. cerevisiae BY4741 = assay: Alkane susceptibility test in liquid culture; assay type: cell-based, Saccharomyces cerevisiae; settings: control cells with empty plasmid, 48 hr, 28° C.
Procedure: FIG. 2. Alkane susceptibility test for S. cerevisiae. The alkane susceptibility was tested in cells expressing ABC2/3 or with empty plasmid. (A) Alkane susceptibility test on agar plate. Serial dilutions of cells expressing ABC2/3 were spotted on agar plates with alkanes (decane, undecane) as vapour phase. Plates were incubated at 28° C. for 2 days. (B) Alkane susceptibility test in liquid culture. Overnight cell culture was diluted into induction medium (final OD600=0.4) with different alkanes (decane & undecane) concentrations. The plates were incubated for 48 hr at 28° C. The OD600 value of each sample was determined and plotted against its corresponding alkane concentration. Symbols for strains are: control sample with empty plasmid (open circle), cells expressing ABC2 (filled circle), cell expressing ABC3 (filled triangle).
Overnight culture was diluted into 5 ml induction medium in 50 ml glass bottle (Sigma) at an initial OD600 of 0.4. Alkanes were added as different final concentration. Bottles were sealed tightly with butyl rubber stopper (Sigma) and silver aluminum seal (Sigma). Liquid culture was performed at 28° C. with shaking. Growth was monitored by measuring the OD600 at different time point. Cell culture used for time point OD checking was collected from the glass bottle using needle and syringe.
To further analyze the effect of ABC2 and ABC3 toward decane and undecane, alkane susceptibility tests in liquid culture were conducted. […] With the expression of ABC2, decane tolerance was boosted about 80-fold (20% vs. 0.25% decane) and cells can survive in 20% undecane. For ABC3, decane tolerance is increased slightly by about 3-fold (0.75% vs. 0.25% decane) and cells are resistant to 20% undecane. It is apparent that the expression of ABC2 and ABC3 transporters improved the tolerance toward C10 and C11 alkanes.

ABC2 mRNA = assay: Quantitative RT-PCR of ABC2 transcripts after alkane treatment; assay type: cell-based; settings: Y. lipolytica CLIB122, 24 h alkane treated vs. untreated, normalized to actin, p<0.05
From the text: (§1) FIG. 3. mRNA transcripts levels of ABC2 and ABC3 in Y. lipolytica. Quantitative RT-PCR analysis of ABC2 (A) and ABC3 (B) in Y. lipolytica cells corresponding to treatment with octane, nonane, decane, undecane and dodecane (C8-C12). Each value of qRT-PCR was normalized to β-actin expression levels and expressed as the fold change relative to the levels detected in control samples, which were cells without alkane treatment and set equal to 1. Error bars represent the SD of triplicate.
(§2) To assess whether ABC1, ABC2, ABC3 and ABC4 are involved in alkane transport in Y. lipolytica, we analysed the effects of alkanes with different chain length (C8-C12) on the transcription levels of these four ABC transporter genes using quantitative RT-PCR.
(§3) Total RNA samples from 24 h alkane treated and untreated Y. lipolytica CLIB122 cells were prepared using RNeasy Mini Kit (Qiagen), followed by cDNA synthesis using H minus Reverse transcriptase kit (Fermentas). Quantitative RT-PCR analysis was performed on a Bio-Rad iQ5 real-time PCR detection system using SsoFast EvaGreen Supermix kit (Bio-Rad). The actin gene (YALI0D08272g) was used as reference gene for Y. lipolytica. Relative mRNA levels were derived using comparative CT method.

ABC3 mRNA = assay: Quantitative RT-PCR of ABC3 transcripts after alkane treatment; assay type: cell-based; settings: Y. lipolytica CLIB122, 24 h alkane treated vs. untreated, normalized to actin, p<0.05
From the text: as §1, §2, §3

Structure (SMILES)	alkane concentration causing a significant decrease in viability of the control cells (S. cerevisiae BY4741)	mRNA levels of ABC2 (ABC2 mRNA)	mRNA levels of ABC3 (ABC3 mRNA)
CCCCCCCCCC [decane]	0.5%	significantly increased	significantly increased
CCCCCCCCC [nonane]	–	significantly increased	significantly increased
